Structures can show the parent of a compound that is named as a salt. Where two headings read alike, the source gives them in different places.
Molecular target: T1, human mAChR M4 (Homo sapiens, UniProt P08173)
T1 sequence (P08173 1-479): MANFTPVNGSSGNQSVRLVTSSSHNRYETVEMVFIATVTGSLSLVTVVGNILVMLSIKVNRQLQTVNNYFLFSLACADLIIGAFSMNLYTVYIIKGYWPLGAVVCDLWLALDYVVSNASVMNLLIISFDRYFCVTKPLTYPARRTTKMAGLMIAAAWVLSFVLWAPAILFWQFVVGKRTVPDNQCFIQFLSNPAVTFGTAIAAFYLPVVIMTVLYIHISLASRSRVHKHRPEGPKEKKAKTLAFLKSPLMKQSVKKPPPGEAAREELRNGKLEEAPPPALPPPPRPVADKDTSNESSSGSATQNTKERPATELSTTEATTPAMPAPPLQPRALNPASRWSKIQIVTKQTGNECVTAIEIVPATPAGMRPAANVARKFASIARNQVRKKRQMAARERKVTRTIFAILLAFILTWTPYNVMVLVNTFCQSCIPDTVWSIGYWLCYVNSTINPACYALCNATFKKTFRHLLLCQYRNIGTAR
Assay: mAChR M4 cell-based functional assay (calcium flux), human M4

[1] = Human M4 EC50 (nM), Table 11, calcium flux, PAM activity with EC20 acetylcholine
[2] = Table 11, % ACh maximum at 30 μM
[3] = Human M4 EC50 (nM), Table 10, calcium flux, PAM activity with EC20 acetylcholine
[4] = Table 10, % ACh maximum at 30 μM
[5] = Human M4, % ACh maximum at 30 μM

`Cc1ccc(O[C@H]2CCN(c3ncnc4c3sc3nnc(C)c(C)c34)C2)cn1` [Compound 364, 3,4-dimethyl-8-[(3S)-3-[(6-methyl-3-pyridyl)oxy]pyrrolidin-1-yl]pyrimido [4′,5′:4,5]thieno[2,3-c] pyridazine dihydrochloride] gave an EC50 [1] of 423 nM and an Emax [2] of 50.7%.
`Cc1nnc2sc3c(NCc4ccc(C(=O)NC(C)C5(CO)CC5)c(Cl)c4)ncnc3c2c1C` (stereo not shown) [Compound 323, 2-chloro-4-[[(3,4-dimethylpyrimido [4′,5′:4,5]thieno[2,3-c]pyridazin-8-yl)amino]methyl]-N-[1-[1-(hydroxymethyl)cyclopropyl]ethyl]benzamide] gave an EC50 [1] of 449 nM and an Emax [2] of 76.3%.
With `CNC(=O)c1cc(CN(C)c2ncnc3c2sc2nnc(C)c(C)c23)ccc1F` [Compound 333, 5-[[(3,4-dimethylpyrimido [4′,5′:4,5]thieno[2,3-c]pyridazin-8-yl)(methyl)amino]methyl]-2-fluoro-N-methyl-benzamide] the EC50 [1] was 1810 nM and the Emax [2] was 39.1%.
For `Cc1nnc2sc3c(N4CC[C@H](Oc5ccc(C(F)(F)F)nc5)C4)ncnc3c2c1C` [Compound 362, 3,4-dimethyl-8-[(3S)-3-[[6-(trifluoromethyl)-3-pyridyl]oxy]pyrrolidin-1-yl] pyrimido[4′,5′:4,5]thieno [2,3-c]pyridazine dihydrochloride], the EC50 [1] was 519 nM and the Emax [2] was 75.7%.
For `Cc1nnc2sc3c(N4CC[C@@H](Oc5ccnc(C(F)(F)F)c5)C4)ncnc3c2c1C` [Compound 337, 3,4-dimethyl-8-[(3R)-3-[[2-(trifluoromethyl)-4-pyridyl]oxy]pyrrolidin-1-yl]pyrimido[4′,5′:4,5] thieno[2,3-c]pyridazine], the EC50 [1] was 116 nM and the Emax [2] was 80.2%.
With `Cc1nnc2sc3c(N4CC[C@@H](Oc5ccnc(Cl)c5)C4)ncnc3c2c1C` [Compound 336, 8-[(3R)-3-[(2-chloro-4-pyridyl)oxy]pyrrolidin-1-yl]-3,4-dimethyl-pyrimido [4′,5′:4,5]thieno[2,3-c] pyridazine] the EC50 [1] was 105 nM and the Emax [2] was 76.9%.
For `Cc1nnc2sc3c(N4CC[C@@H](Oc5cccnc5)C4)ncnc3c2c1C` [Compound 340, 3,4-dimethyl-8-[(3R)-3-(3-pyridyloxy)pyrrolidin-1-yl]pyrimido[4′,5′:4,5] thieno[2,3-c]pyridazine], the EC50 [1] was 101 nM and the Emax [2] was 72.9%.
In the case of `COc1ccc(C2CC2Nc2ncnc3c2sc2nc(C)cc(C)c23)cc1` (stereo not shown) [Compound 202, N-[2-(4-methoxyphenyl)cyclopropyl]-7,9-dimethyl-pyrido [3′,2′:4,5]thieno[3,2-d] pyrimidin-4-amine], the EC50 [3] is reported as 1640 nM and the Emax [4] is reported as 61.1%.
`Cc1nnc2sc3c(N4CC[C@H](Oc5cnccn5)C4)ncnc3c2c1C` [Compound 361, 3,4-dimethyl-8-[(3S)-3-pyrazin-2-yloxypyrrolidin-1-yl]pyrimido[4′,5′:4,5] thieno[2,3-c]pyridazine dihydrochloride] gave an EC50 [1] of 1470 nM and an Emax [2] of 53.9%.
Compound `Cc1nnc2sc3c(NCc4ccc(CN5CCOCC5)cc4)ncnc3c2c1C` [Compound 108, 3,4-dimethyl-N-[[4-(morpholinomethyl)phenyl]methyl]pyrimido[4′,5′:4,5] thieno[2,3-c] pyridazin-8-amine hydrochloride] has an Emax of 76.8% and an EC50 [3] of 148 nM.
Compound `Cc1nnc2oc3c(NC4CC5(COC5)C4)ncnc3c2c1C` [Compound 305, 3,4-dimethyl-N-(2-oxaspiro[3.3]heptan-6-yl)pyrimido[4′,5′:4,5] furo[2,3-c]pyridazin-8-amine] has an EC50 (Human M4 EC50 (nM), Table 10, unit μM (bounds)) greater than 10000 nM and an Emax [4] of 25.6%.
In the case of `Cc1nnc2sc3c(NCc4ccc(C(=O)NC5CC5)c(Cl)c4)ncnc3c2c1C` [Compound 313, 2-chloro-N-cyclopropyl-4-[[(3,4-dimethylpyrimido[4′,5′:4,5]thieno[2,3-c]pyridazin-8-yl)amino]methyl]benzamide], the EC50 [1] is reported as 166 nM and the Emax [2] is reported as 75.2%.
Work on `CCNc1ncnc2c1oc1nc(C)c(Cl)c(C)c12` [Compound 287, 8-chloro-N-ethyl-7,9-dimethyl-pyrido[3′,2′:4,5]furo[3,2-d]pyrimidin-4-amine hydrochloride] yielded an EC50 [3] of 1250 nM and an Emax [4] of 40.6%.
`Cc1nnc2sc3c(NCc4cccc(C5(O)CCC5)c4)ncnc3c2c1C` [Compound 102, 1-[3-[[(3,4-dimethylpyrimido [4′,5′:4,5]thieno[2,3-c]pyridazin-8-yl)amino]methyl]phenyl] cyclobutanol] was tested, and the EC50 [3] was 135 nM and the Emax [4] was 53.3%.
For `Cc1nnc2oc3c(NCc4cccc(C(C)(C)O)c4)ncnc3c2c1C` [Compound 301, 2-[3-[[(3,4-dimethylpyrimido [4′,5′:4,5]furo[2,3-c]pyridazin-8-yl)amino]methyl]phenyl]propan-2-ol], the Emax [4] was 63.4%.
With `Cc1nnc2sc3c(NC4CN(c5cnc(C6CC6)cn5)C4)ncnc3c2c1C` [Compound 86, N-[1-(5-cyclopropylpyrazin-2-yl)azetidin-3-yl]-3,4-dimethyl-pyrimido [4′,5′:4,5]thieno[2,3-c] pyridazin-8-amine] the EC50 [3] was 60.4 nM and the Emax [4] was 69%.
In the case of `Cc1nc2sc3c(NC4CN(c5ccnc(C6(O)CCC6)c5)C4)ncnc3c2c(C)c1Cl` [Compound 239, 1-[4-[3-[(8-chloro-7,9-dimethyl-pyrido [3′,2′:4,5]thieno[3,2-d]pyrimidin-4-yl)amino]azetidin-1-yl]-2-pyridyl]cyclobutanol], the EC50 [3] is reported as 1920 nM and the Emax [4] is reported as 72.3%.
In the case of `CNC(=O)c1ccc(CNc2ncnc3c2sc2nnc(C)c(C)c23)cc1Cl` [Compound 325, 2-chloro-4-[[(3,4-dimethylpyrimido [4′,5′:4,5]thieno[2,3-c]pyridazin-8-yl)amino]methyl]-N-methyl-benzamide], the EC50 [1] is reported as 62.2 nM and the Emax [2] is reported as 78.8%.
With `Cc1cc(C)c2c(n1)oc1c(NCc3ccc(S(C)(=O)=O)cc3)ncnc12` [Compound 292, 7,9-dimethyl-N-[(4-methylsulfonylphenyl)methyl]pyrido[3′,2′:4,5]furo [3,2-d]pyrimidin-4-amine hydrochloride] the EC50 [3] was 1200 nM and the Emax [4] was 42.5%.
Compound `Cc1nnc2sc3c(NCc4ccc(-c5cccs5)cc4)ncnc3c2c1C` [Compound 190, 3,4-dimethyl-N-[[4-(2-thienyl)phenyl]methyl] pyrimido[4′,5′:4,5]thieno [2,3-c]pyridazin-8-amine] has an EC50 [3] of 3210 nM and an Emax [4] of 90.8%.
For `Cc1cc(C)c2c(n1)oc1c(NC3CN(c4cc(Cl)ncc4Cl)C3)ncnc12` [Compound 290, N-[1-(2,5-dichloro-4-pyridyl)azetidin-3-yl]-7,9-dimethyl-pyrido[3′,2′:4,5]furo[3,2-d]pyrimidin-4-amine dihydrochloride], the EC50 [3] was 1490 nM and the “Emax (%)” value [4] was 49.29%.
Work on `COc1cc(F)c(CNc2ncnc3c2oc2nnc(C)c(C)c23)c(F)c1` [Compound 310, N-[(2,6-difluoro-4-methoxy-phenyl)methyl]-3,4-dimethyl-pyrimido[4′,5′:4,5] furo[2,3-c]pyridazin-8-amine] yielded an EC50 [3] of 845 nM and an Emax [4] of 53.2%.
In the case of `Cc1nnc2sc3c(N4CCC(c5ccccc5)C4)ncnc3c2c1C` (stereo not shown) [Compound 28, 3,4-dimethyl-8-(3-phenylpyrrolidin-1-yl) pyrimido[4′,5′:4,5]thieno [2,3-c]pyridazine], the Emax [5] is reported as 49%.
Compound `Cc1nnc2sc3c(NCc4ccc(-c5cccnc5F)cc4)ncnc3c2c1C` [Compound 29, N-(4-(2-fluoropyridin-3-yl)benzyl)-3,4-dimethylpyrimido [4′,5′:4,5]thieno[2,3-c] pyridazin-8-amine] has an Emax [5] of 61% and an EC50 (Human M4 EC50, CHO-K1 hM4-Gqi5 cells, calcium flux, increase in EC20 acetylcholine response) of 4050 nM.
`COCCN1CCN(c2ccc(CNc3ncnc4c3sc3nnc(C)c(C)c34)cc2)CC1` [Compound 120, N-[[4-[4-(2-methoxyethyl)piperazin-1-yl]phenyl]methyl]-3,4-dimethyl-pyrimido [4′,5′:4,5]thieno[2,3-c] pyridazin-8-amine] gave an EC50 [3] of 226 nM and an Emax [4] of 100%.
For `Cc1nnc2sc3c(NCc4ccc(C(C)(O)CO)cc4)ncnc3c2c1C` (stereo not shown) [Compound 373, 2-[4-[[(3,4-dimethylpyrimido[4′,5′:4,5]thieno[2,3-c]pyridazin-8-yl)amino]methyl]phenyl] propane-1,2-diol], the EC50 was 69.2 nM and the Emax [2] was 98%.
`Cc1nnc2sc3c(NCc4ccc(C(=O)N[C@H](C)C(F)(F)F)cc4)ncnc3c2c1C` [Compound 157, 4-[[(3,4-dimethylpyrimido [4′,5′:4,5]thieno[2,3-c]pyridazin-8-yl)amino]methyl]-N-[(1R)-2,2,2-trifluoro-1-methyl-ethyl]benzamide] gave an EC50 [3] of 244 nM and an Emax [4] of 86.1%.
`Cc1nnc2sc3c(NCc4ccc(C(=O)N5CCC5)cc4)ncnc3c2c1C` [Compound 131, azetidin-1-yl-[4-[[(3,4-dimethylpyrimido [4′,5′:4,5]thieno[2,3-c]pyridazin-8-yl)amino]methyl]phenyl]methanone] showed an EC50 [3] of 276 nM and an Emax [4] of 88.4%.
In the case of `COc1ccc(CNc2ncnc3c2sc2nnc(C)c(C)c23)cc1` [Compound 135, N-[(4-methoxyphenyl)methyl]-3,4-dimethyl-pyrimido[4′,5′:4,5]thieno [2,3-c]pyridazin-8-amine], the EC50 [3] is reported as 139 nM and the Emax [4] is reported as 87.8%.
`Cc1nnc2sc3c(NCc4ccc(OC(F)F)nc4)ncnc3c2c1C` [Compound 90, N-[[6-(difluoromethoxy)-3-pyridyl]methyl]-3,4-dimethyl-pyrimido [4′,5′:4,5]thieno[2,3-c] pyridazin-8-amine] showed an EC50 [3] of 277 nM and an Emax [4] of 76.7%.
